In article PMC8582824, “Targeting DDX3X Helicase Activity with BA103 Shows Promising Therapeutic Effects in Preclinical Glioblastoma Models” (Cancers, 2021):

Tests used:
U87 cells = assay: MTS cytotoxicity assay, U87 cells; format: cell-based; conditions: for mean absorbance at 490 nm (MTS): 72 h
Experimental: (§1) For CellTiter 96® Aqueous One Solution Cell Proliferation Assay (MTS) (Promega, Madison, WI, USA), cells were seeded at 5 × 10^3 per well in 96-well plates in quadruplicate together a control with no cells to evaluate the background. After 24 h, the culture medium was removed, and fresh medium containing increasing concentrations of chemical compounds was added to cells. […] DMSO was the vehicle used for dilution of the compounds, and its final concentration on cells was less than 0.2%. Medium-only containing wells were included as controls. Cells were incubated with compounds at different concentrations for 72 h, then, 20 µL of CellTiter 96® AQueous One Solution Reagent was added into each well. After 3 h at 37 °C in a humidified, 5% CO2 atmosphere, the absorbance at 492 nm was recorded using an EZREAD400 (Biochrom, Cambridge, United Kingdom) plate reader. The average 490 nm absorbance from the “no cell” control wells was subtracted from all other values to yield background-corrected absorbance. Dose–response curves and CC50 values have been calculated by plotting the absorbance data as a function of inhibitor concentrations and fitting the data by least-squares nonlinear regression, according to the method of Marquardt–Levenberg, with the computer program GraphPad Prism 6.0.
(§2) Cells were incubated with a scalar concentration of DDX3X inhibitors, and after 72 h of treatment, cell viability was assessed by cytotoxicity assay. […] Compounds 4, 6, and BA103 were also evaluated against BJ primary fibroblasts; compound 4 has a cytotoxicity value of 84.7 μM; on the contrary, compounds 6 and BA103 were not toxic up to 200 μM concentration. This further excluded a possible nonspecific cytotoxic effect. […] Due to its interesting profile, compound BA103 was further tested against additional pulmonary (A549), breast (MDA-MB-231), colorectal (HCT-116), osteosarcoma (U2OS), rhabdomyosarcoma (RD18), GBM (DBTRG, U87, and U251) and medulloblastoma (DAOY) cancer cell lines.
(§3) Figure 5 Cytotoxicity of selected compounds. Compounds were assayed on DU-145, PC3, HepG2, Huh-7, HN6, U251, and U87 cell lines. The concentration of the compound, which reduced the number of viable cells by 50% (CC50), was determined by dose–response curve, and the mean CC50 value for each cell line was calculated by triplicate assays (raw data from U87 and U251 cells with dose–response curves used for the calculation of CC50 in Table S1 and Figure S2).
(§4) Table S1: Raw data of optical absorbance at 490 nm from MTS assay in U87 and U251 cells. Tables contain
(§5) means with SD of at least 5 different values that were used for preparation of figure 5.

U251 cells = assay: MTS cytotoxicity assay, U251 cells; format: cell-based; conditions: 72 h
Experimental: as §1, §2, §3, §4, §5

[1] = Human liver microsomal metabolic stability; format: in vitro ADME; conditions: 37 °C, 60 min
Experimental: Preliminary in vitro ADME analysis was performed to early evaluate the pharmacokinetic (PK) profile of our compounds (Figure 8). Aqueous solubility was calculated by LC-MS-MS analysis. An aliquot of 1 mg of compound was stirred for 24 h at 27 °C in 1 mL of water. The mixture was filtered, and the quantity of solubilized compound was determined. Passive permeability was determined using parallel artificial membrane permeability assay (PAMPA). Microsomal metabolic stability was determined by LC-UV-MS analysis by incubating compounds with human liver microsomes at 37 °C for 60 min (for details, see the Supporting Information). […]
Microsomal Stability Assay.
Each compound in DMSO solution was incubated at 37 °C for 60 min in 125 mM phosphate buffer (pH 7.4), 5 μL of human liver microsomal protein (0.2 mg mL-1), in the presence of a NADPH-generating system at a final […]
reaction was stopped by cooling on ice and adding 1.0 mL of acetonitrile. The reaction mixtures were then centrifuged, and the parent drug and metabolites were subsequently determined by LC-UV-MS.
Chromatographic analysis was performed with an Agilent 1100 LC/MSD VL system (G1946C) (Agilent Technologies, Palo Alto, CA) constituted by a vacuum solvent degassing unit, a binary high-pressure gradient pump, an 1100 series UV detector, and an 1100 MSD model VL benchtop mass spectrometer.
Chromatographic separation was obtained using a Varian Polaris C18-A column (150-4.6 mm, 5 μm particle size) and gradient elution: eluent A being ACN and eluent B consisting of water. The analysis started with 2% […]
flow rate was 0.8 mL min-1 and injection volume was 20 μL.
The Agilent 1100 series mass spectra detection (MSD) single-quadrupole instrument was equipped with the orthogonal spray API-ES (Agilent Technologies, Palo Alto, CA). Nitrogen was used as nebulizing and drying gas. The pressure of the nebulizing gas, the flow of the drying gas, the capillary voltage, the fragmentor voltage, and the vaporization temperature were set at 40 psi, 9 L/min, 3000 V, 70 V, and 350 °C, respectively.
UV detection was monitored at 280 nm. The LC-ESI-MS determination was performed by operating the MSD in the positive ion mode. Spectra were acquired over the scan range m/z 100-1500 using a step size of 0.1 u.
The percentage of not metabolized compound was calculated by comparison with reference solutions

| SMILES | mean absorbance at 490 nm (MTS) (U87 cells; U87, 0,01 uM) | mean absorbance at 490 nm (MTS) (U87 cells; U87, 0,1 uM) | mean absorbance at 490 nm (MTS) (U87 cells; U87, 1 uM) | mean absorbance at 490 nm (MTS) (U87 cells; U87, 10 uM) | mean absorbance at 490 nm (MTS) (U87 cells; U87, 100 uM) | CC50 (U87 cells; U87, 72 h) | mean absorbance at 490 nm (MTS) (U251 cells; U251, 0,01 uM) | mean absorbance at 490 nm (MTS) (U251 cells; U251, 0,1 uM) | mean absorbance at 490 nm (MTS) (U251 cells; U251, 1 uM) | mean absorbance at 490 nm (MTS) (U251 cells; U251, 10 uM) | mean absorbance at 490 nm (MTS) (U251 cells; U251, 100 uM) | HLM Stability ± SD (Human Liver Microsomal Metabolic Stability) [1] [%] |
| --- | --- | --- | --- | --- | --- | --- | --- | --- | --- | --- | --- | --- |
| CCCCc1cn(-c2ccc(NC(=O)Nc3ccccc3C(F)(F)F)cc2)nn1 [BA103, 1-(4-(4-Butyl-1H-1,2,3-triazol-1-yl)phenyl)-3-(2-(trifluoromethyl)phenyl)urea] | 1,598 | 1,132 | 0,959 | 0,804 | 0,566 | low micromolar range | 2,166 | 2,070 | 1,364 | 0,842 | 0,604 | 97.0 ± 0.5 |
| CCCCc1cn(-c2ccc(NC(=O)Nc3ccccc3C)cc2)nn1 [Compound 1, reference compound] | 2,027 | 2,018 | 2,000 | 1,584 | 0,465 |  | 2,020 | 1,998 | 1,459 | 1,107 | 0,474 | 99.0 ± 0.6 |
| CCCCc1nnc(-c2ccc(NC(=O)Nc3ccccc3C(F)(F)F)cc2)o1 [Compound 3, 1-(4-(5-Butyl-1,3,4-oxadiazol-2-yl)phenyl)-3-(2-(trifluoromethyl)phenyl)urea] | 1,350 | 1,140 | 1,178 | 1,065 | 0,568 |  | 1,298 | 1,025 | 1,098 | 0,593 | 0,217 | 88.9 ± 0.9 |
| CCCCc1nnc(-c2ccc(NC(=O)Nc3ccccc3C(F)(F)F)cc2)[nH]1 [Compound 4, 1-(4-(5-Butyl-4H-1,2,4-triazol-3-yl)phenyl)-3-(2-(trifluoromethyl)phenyl)urea] | 1,906 | 1,293 | 0,941 | 0,784 | 0,162 |  | 1,499 | 1,513 | 1,627 | 1,482 | 0,502 | 97.9 ± 0.3 |
| CCCCn1nnc(-c2ccc(NC(=O)Nc3ccccc3C(F)(F)F)cc2)n1 [Compound 6, 1-(4-(2-Butyl-2H-tetrazol-5-yl)phenyl)-3-(2-(trifluoromethyl)phenyl)urea] | 1,944 | 1,964 | 2,007 | 1,387 | 0,540 |  | 1,431 | 1,763 | 2,172 | 1,348 | 0,361 | 90.32 ± 0.7 |
| CC(C)CCc1cn(-c2ccc(NC(=O)Nc3cccc4cnccc34)cn2)nn1 [Compound 10, 1-(6-(4-Isopentyl-1H-1,2,3-triazol-1-yl)pyridin-3-yl)-3-(isoquinolin-5-yl)urea] | 1,863 | 1,379 | 1,165 | 0,858 | 0,467 |  | 1,904 | 2,003 | 1,581 | 1,667 | 0,809 | 91.31 ± 0.1 |
